These results are taken from patent publication US20060046972A1, “Cytotoxic nucleoside analog compound 003 for treating cancer” (Parker Hughes Institute, priority 2004, published 2006).

The Km is the concentration of substrate that gives half-maximal velocity. One may read the Vmax as the rate approached at saturating substrate.

Assay [1] deals with DT40, chicken B lymphoma. As to the kind of experiment: DNA flow cytometry of cell cycle arrest, DT40. In kind it is cell-based. The following applies: 100 μM, 48 hour. The procedure:
(§1) Exponentially growing tumor cells were cultured at 1×10^6 cells/ml in clonogenic medium (RPMI 1640 medium +1% penicillin/streptomycin +10% heat-inactivated fetal bovine serum, 2 mML-glutamine, and 10 mM Hepes buffer) in the presence or absence of 100 μM compound 003 for 48 hour at 37° C., 5% CO2. At 48 h, cells were washed two times in fresh clonogenic medium, trypsinized, fixed in ice cold ethanol and labeled with propidium iodide to quantify their DNA content, as described previously (See, for example, Navara, et al., 2001, Anticancer Drugs. 12:369). Quantitative DNA analysis was performed on a Becton Dickenson Calibur flow cytometer equipped with a Consort 40 computer using the COTFIT program, which includes CELLCY, a cell cycle distribution function that fits DNA content histograms and calculates-the percentages of cells in G, S, and GM phases of the cell cycle, as described, for example, in Uckun et al., 1996, J Biol Chem. 271, 6389.
For orientation: Flow cytometry measures light scatter and fluorescence of single cells or particles in a stream.

Assay [2] concerns human pre-B acute lymphoblastic leukemia (NALM-6). As to the kind of experiment: DNA flow cytometry of cell cycle arrest, NALM-6. In kind it is cell-based. The following applies: 100 μM, 48 hour. The procedure: as §1
Assay [3] has as its system MOLT-3, human T lymphoma. The assay can be described thus: DNA flow cytometry of cell cycle arrest, MOLT-3. Format: cell-based. The following applies: 100 μM, 48 hour. The procedure: as §1
Assay [4] relates to MMTV/Neu transgenic mice (spontaneous breast cancer). As to the kind of experiment: Murine model of Her2 positive breast cancer, virgin MMTV/Neu transgenic mice. Format: in vivo. The text has this:
Overexpression of the wild type Neu in the mammary glands of transgenic mice induces metastatic breast cancer. Accordingly, in the MMTV/Neu transgenic strain, the wild-type neu is overexpressed in the mammary gland under the control of the MMTV long terminal repeat. This animal model has been used to analyze the Her2/neu overexpression in breast epithelia, as well as the efficacy of new therapeutic approaches to prevent or treat Her2/neu overexpressing malignancies.
MMTV/Neu transgenic mice were treated with Compound 003 that was added to the daily food of the mice at an average daily dose level of 50 mg/kg/day for the duration of the experiment. Mice were screened for the tumor formation every other day. Tumor-free survival was analyzed using life table statistics as previously reported. The protective anti-cancer activity of Compound 003 was evaluated according to the rise of the survival rate and prolongation of the tumor-free survival of the experimental animals as compared with the control animals. Statistical Significance was determined using the Kaplan Meier Log-Rank test.
Neu transgenic mice were mated to FVB non-transgenic mice, and heterozygous neu transgenic offspring were identified by PCR analysis. A total of 62 female neu transgenic mice were identified from the offspring. These transgenic mice were used to examine the effects of a nontoxic dose level of Compound 003 (50 mg/kg/day) on spontaneous breast cancer development in two independent experiments.
In the first experiment, 30 virgin transgenic mice were used. Treatments were initiated when female mice were 6 weeks of age. Fifteen of the 15 vehicle treated control transgenic mice developed breast cancer with a median cancer-free survival time of 224 days (Mean=253±23 days) (FIG. 7, FIG. 8A&B). At 340 days, only 20% of the mice were tumor-free and by 480 days all had developed breast cancer. The mammary gland tumors were excised, paraffin-embedded and sectioned for H+E staining. A representative tumor section from a neu transgenic mouse is shown in panel C of FIG. 8. […]

The subject of assay [5] is Microsomal or cytosolic fractions of BT20 cells. The assay can be described thus: Enzyme kinetics of Compound 003 metabolism in subcellular fractions, BT20. Format: in vitro ADME, human. As for the experimental part:
1−3×10^8 Nalm6 and BT20 cells were washed with PBS, resuspended in homogenizing buffer containing 10 mM Tris-HCl (pH 7.4) and 250 mM sucrose. Cells were sonicated and spun at 10,000×g, and the resulting supernatant was centrifuged again at 100,000×g to isolate microsomal and cytosolic fractions. The microsomal pellet was resuspended in a buffer containing 10 mM Tris-HCl (pH 7.4), 250 mM sucrose, 1 mM EDTA, and 20% glycerol. Microsomes or cytosols of Nalm6 (80 μg. and 86 μg, respectively) and BT20 cells (59 μg and 160 μg, respectively) were preincubated with or without 1 mM paraoxon in Tris-HCl buffer (pH 7.4) in a total volume of 250 μl for 10 minutes; 1. mM COMPOUND 003 was then added to the incubation mixture, and the reactions were allowed to proceed for another 30 minutes and terminated by addition of 125 μl of acetone. Protein precipitation was then removed by centrifugation; 100 μl of the supernatant was injected directly into the HPLC.
2.2.9 Enzyme Kinetics of Compound 003 Metabolism Microsomal or cytosolic fractions of Nalm6 and BT20 cells were incubated with COMPOUND 003 at various concentrations from 10 μM to 1.2 mM in similar reaction conditions as described above, except without the inhibitor. The reactions were allowed to proceed for 40 minutes. Km and Vmax in the Michaelis-Menten model were estimated by WinNonlin program (Scientific Consulting, Inc.)

As to `COC(=O)C(C)NP(=O)(OCC1OC(n2cc(C)c(=O)[nH]c2=O)CC1N=[N+]=[N-])Oc1ccc(OC)cc1` (stereo not shown) [Compound 003, 3′-azidothymidine 5′-[p-methoxyphenylmethoxyalaninyl phosphate]], the cell cycle arrest result is “caused G2 arrest” in assay [1], “G2M cell cycle arrest” in assay [2] and “caused G2 arrest” in assay [3]. This compound came in with a median cancer-free survival in assay [4] (50 mg/kg/day in food, vehicle 224 days, P=0.0007) of 455 days. In assay [4] (50 mg/kg/day, at 340 days, vehicle 20±10%), the “proportion of mice cancer-free” value was found to be 93±7%. In assay [4] (50 mg/kg/day, at 480 days, when all vehicle mice had breast cancer), the “proportion of mice still cancer-free” value is “one third”. Besides, the Michaelis-Menten constant (Km) in assay [5] (cytosolic fraction) is 1.75 mM; in assay [5] (microsomal fraction), 0.46 mM. Further, the Vmax worked out at 5.9 nmol/mg/min in assay [5] (cytosolic fraction) and 0.7 nmol/mg/min in assay [5] (microsomal fraction).
